#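 Abbreviation: GI50, concentration required for 50% inhibition of growth. TGI: concentration producing complete growth inhibition.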
# Experiments:
# Test in all cases: NCI-60 cell line screen, 384-well format
# [1] = tested on: OVCAR-5 ovarian
# [2] = tested on: ACHN renal
# [3] = tested on: M14 melanoma
# [4] = tested on: A498 renal
# [5] = tested on: LOX IMVI melanoma
# [6] = tested on: SF-268 CNS
# [7] = tested on: UACC-257 melanoma
# [8] = tested on: MDA-MB-231 breast
# [9] = tested on: KM12 colon
# [10] = tested on: A549 NSCLC
# [11] = tested on: UO-31 renal
# [12] = tested on: NCI-H23 lung
# [13] = tested on: COLO 205 colon
# [14] = tested on: CCRF-CEM leukemia
# [15] = tested on: HCT-15 colon
# [16] = tested on: MDA-MB-468 breast
# [17] = tested on: OVCAR-8 ovarian
# [18] = tested on: SN12C renal
# [19] = tested on: DU-145 prostate
# [20] = tested on: TK-10 renal
# [21] = tested on: SK-MEL-28 melanoma
# [22] = tested on: NCI-H460 NSCLC
# [23] = tested on: K-562 leukemia
# [24] = tested on: T-47D breast
# [25] = tested on: HCT-116 colon
# [26] = tested on: HT29 colon
# [27] = tested on: HS 578T breast
# [28] = tested on: NCI-H226 lung
# [29] = tested on: SK-OV-3 ovarian
# [30] = tested on: CAKI-1 renal
# [31] = tested on: MDA-MB-435 melanoma
# [32] = tested on: SW-620 colon
# [33] = tested on: OVCAR-3 ovarian
# [34] = tested on: MALME-3M melanoma
# [35] = tested on: BT-549 breast
# [36] = tested on: HL-60(TB) leukemia
# [37] = tested on: MOLT-4 leukemia
# [38] = tested on: HOP-62 NSCLC
# [39] = tested on: RXF 393 renal
# [40] = tested on: SF-295 CNS
# [41] = tested on: IGROV1 ovarian
# [42] = tested on: MCF7 breast
# [43] = tested on: NCI-H522 lung
# [44] = tested on: SF-539 CNS
# [45] = tested on: 786-0 renal
# [46] = tested on: NCI-H322M lung
# [47] = tested on: EKVX NSCLC
# [48] = tested on: RPMI-8226 leukemia
# [49] = tested on: SNB-75 CNS
# [50] = tested on: SK-MEL-5 melanoma
# [51] = tested on: UACC-62 melanoma
# [52] = tested on: HCC-2998 colon
# [53] = tested on: PC-3 prostate
# [54] = tested on: U251 glioblastoma
# [55] = tested on: HOP-92 NSCLC
# [56] = tested on: OVCAR-4 ovarian
# [57] = tested on: SNB-19 CNS
# [58] = tested on: NCI/ADR-RES ovarian
compound,measurement,setting,value
CN(C(=O)c1ccc(F)cc1C(F)(F)F)C1CCN(c2nnc(-c3ccnn3C)c3ccccc23)CC1,GI50,[1],> 100 µM
same,TGI,[1],> 100 µM
same,GI50,[2],> 100 µM
same,TGI,[2],> 100 µM
same,GI50,[3],58.1 µM
same,TGI,[3],> 100 µM
same,GI50,[4],46.7 µM
same,TGI,[4],> 100 µM
same,GI50,[5],46.3 µM
same,TGI,[5],> 100 µM
same,GI50,[6],13.9 µM
same,TGI,[6],71 µM
same,GI50,[7],32 µM
same,TGI,[7],> 100 µM
same,GI50,[8],47 µM
same,TGI,[8],> 100 µM
same,GI50,[9],> 100 µM
same,TGI,[9],> 100 µM
same,GI50,[10],44.8 µM
same,TGI,[10],> 100 µM
same,GI50,[11],58.7 µM
same,TGI,[11],> 100 µM
same,GI50,[12],30.1 µM
same,TGI,[12],> 100 µM
same,GI50,[13],42.9 µM
same,TGI,[13],> 100 µM
same,GI50,[14],12.9 µM
same,TGI,[14],44.8 µM
same,GI50,[15],44.4 µM
same,TGI,[15],> 100 µM
same,GI50,[16],3.8 µM
same,TGI,[16],21.3 µM
same,GI50,[17],34.7 µM
same,TGI,[17],> 100 µM
same,GI50,[18],> 100 µM
same,TGI,[18],> 100 µM
same,GI50,[19],86.2 µM
same,TGI,[19],> 100 µM
same,GI50,[20],> 100 µM
same,TGI,[20],> 100 µM
same,GI50,[21],> 100 µM
same,TGI,[21],> 100 µM
same,GI50,[22],35.7 µM
same,TGI,[22],> 100 µM
same,GI50,[23],15.1 µM
same,TGI,[23],> 100 µM
same,GI50,[24],2.73 µM
same,TGI,[24],12.5 µM
same,GI50,[25],47.7 µM
same,TGI,[25],> 100 µM
same,GI50,[26],76.6 µM
same,TGI,[26],> 100 µM
same,GI50,[27],> 100 µM
same,TGI,[27],> 100 µM
same,GI50,[28],32.1 µM
same,TGI,[28],> 100 µM
same,GI50,[29],89.2 µM
same,TGI,[29],> 100 µM
same,GI50,[30],47.6 µM
same,TGI,[30],> 100 µM
same,GI50,[31],63.1 µM
same,TGI,[31],> 100 µM
same,GI50,[32],> 100 µM
same,TGI,[32],> 100 µM
same,GI50,[33],85.6 µM
same,TGI,[33],> 100 µM
same,GI50,[34],65 µM
same,TGI,[34],> 100 µM
same,GI50,[35],26.7 µM
same,TGI,[35],> 100 µM
same,GI50,[36],18.7 µM
same,TGI,[36],43.9 µM
same,GI50,[37],13 µM
same,TGI,[37],26.4 µM
same,GI50,[38],13.9 µM
same,TGI,[38],> 100 µM
same,GI50,[39],20.9 µM
same,TGI,[39],74.4 µM
same,GI50,[40],> 100 µM
same,TGI,[40],> 100 µM
same,GI50,[41],> 100 µM
same,TGI,[41],> 100 µM
same,GI50,[42],29.9 µM
same,TGI,[42],> 100 µM
same,GI50,[43],35.5 µM
same,TGI,[43],> 100 µM
same,GI50,[44],> 100 µM
same,TGI,[44],> 100 µM
same,GI50,[45],> 100 µM
same,TGI,[45],> 100 µM
same,GI50,[46],28 µM
same,TGI,[46],> 100 µM
same,GI50,[47],21.5 µM
same,TGI,[47],> 100 µM
same,GI50,[48],22.5 µM
same,TGI,[48],> 100 µM
same,GI50,[49],58.5 µM
same,TGI,[49],> 100 µM
same,GI50,[50],8.15 µM
same,TGI,[50],21.2 µM
same,GI50,[51],> 100 µM
same,TGI,[51],> 100 µM
same,GI50,[52],22.4 µM
same,TGI,[52],> 100 µM
same,GI50,[53],44.5 µM
same,TGI,[53],> 100 µM
same,GI50,[54],54.3 µM
same,TGI,[54],> 100 µM
same,GI50,[55],48.3 µM
same,TGI,[55],> 100 µM
same,GI50,[56],67.4 µM
same,TGI,[56],> 100 µM
same,GI50,[57],89.5 µM
same,TGI,[57],> 100 µM
same,GI50,[58],33.3 µM
same,TGI,[58],> 100 µM

# Reference: PubChem BioAssay (NCI)
